For this assay, the target named is PI 3-Kinase Gamma (Homo sapiens (Human), UniProt P48736). Briefly: Cellular U937 AKT assay for PI 3-kinase gamma. The assay is classed as cell-based. The following applies: U937 cells, MIP1α-stimulated AKT phosphorylation, read-out: Cell PI3K gamma IC50.

Molecules are shown by their SMILES.

PI 3-Kinase Gamma, sequence (P48736 whole entry): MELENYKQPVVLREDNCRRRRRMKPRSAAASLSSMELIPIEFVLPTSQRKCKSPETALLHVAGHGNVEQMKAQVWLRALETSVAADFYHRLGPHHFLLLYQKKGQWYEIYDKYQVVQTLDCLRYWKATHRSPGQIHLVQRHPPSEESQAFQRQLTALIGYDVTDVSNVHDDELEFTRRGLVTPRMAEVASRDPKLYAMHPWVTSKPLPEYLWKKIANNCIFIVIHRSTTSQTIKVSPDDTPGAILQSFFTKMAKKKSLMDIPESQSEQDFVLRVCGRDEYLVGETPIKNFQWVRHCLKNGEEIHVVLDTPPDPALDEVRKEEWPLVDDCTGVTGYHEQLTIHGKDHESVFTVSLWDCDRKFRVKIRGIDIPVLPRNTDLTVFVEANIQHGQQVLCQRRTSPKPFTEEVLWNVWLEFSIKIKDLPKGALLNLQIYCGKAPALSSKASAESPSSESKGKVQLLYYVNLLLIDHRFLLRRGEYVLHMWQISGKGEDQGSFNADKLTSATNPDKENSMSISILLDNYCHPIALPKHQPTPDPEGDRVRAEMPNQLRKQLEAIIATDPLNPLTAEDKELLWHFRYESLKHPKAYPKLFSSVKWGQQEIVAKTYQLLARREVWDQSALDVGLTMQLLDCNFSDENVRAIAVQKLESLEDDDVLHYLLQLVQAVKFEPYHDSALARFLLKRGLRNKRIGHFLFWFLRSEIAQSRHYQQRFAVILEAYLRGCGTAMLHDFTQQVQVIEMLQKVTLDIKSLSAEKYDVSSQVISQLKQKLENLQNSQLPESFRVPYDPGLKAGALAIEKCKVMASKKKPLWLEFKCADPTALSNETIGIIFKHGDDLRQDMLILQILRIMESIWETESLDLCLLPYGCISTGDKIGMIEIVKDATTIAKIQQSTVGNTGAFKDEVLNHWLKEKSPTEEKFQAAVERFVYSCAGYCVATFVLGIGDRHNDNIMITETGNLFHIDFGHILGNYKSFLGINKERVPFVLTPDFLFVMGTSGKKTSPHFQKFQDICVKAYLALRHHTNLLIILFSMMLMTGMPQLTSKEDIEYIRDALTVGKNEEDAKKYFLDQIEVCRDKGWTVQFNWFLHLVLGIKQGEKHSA

Regarding `CO[C@H]1C[C@@H](c2nc3cccc(-c4cnn(C)c4)c3c(=O)n2-c2ccccc2)N(c2nc(N)nc(C)c2C#N)C1` [Example 10, 2-Amino-4-((2S,4S)-4-methoxy-2-(5-(1-methyl-1H-pyrazol-4-yl)-4-oxo-3-phenyl-3,4-dihydroquinazolin-2-yl)pyrrolidin-1-yl)-6-methylpyrimidine-5-carbonitrile], the IC50 is 38 nM.

A word on the IC50: it is the concentration that inhibits the measured activity by half.

For the origin of these results see patent US9840498B2, “Substituted quinazolin-4-one derivatives” (NOVARTIS AG, priority 2013, dated 2017).
